Experiments:
Type in all cases: functional, Stomach
[1] = tested on: Rattus norvegicus; assay: Antiulcer activity in Wistar Rattus norvegicus (rat) assessed as decrease in total acidity of gastric secretions at 0.1158 mM/kg, po administered 1 hr prior to pylorous ligation measured after 19 hr by titRattus norvegicus (rat)ion assay relative to untreated control; parameters: scale not given: the % may be the effect or the level left
[2] = tested on: Rattus norvegicus; assay: Antiulcer activity in Wistar Rattus norvegicus (rat) assessed as decrease in total acidity of gastric secretions at 0.0579 mM/kg, po administered 1 hr prior to pylorous ligation measured after 19 hr by titRattus norvegicus (rat)ion assay relative to untreated control; parameters: scale not given: the % may be the effect or the level left
[3] = tested on: Rattus norvegicus; assay: Antiulcer activity in Wistar Rattus norvegicus (rat) assessed as decrease in total acidity of gastric secretions at 0.0289 mM/kg, po administered 1 hr prior to pylorous ligation measured after 19 hr by titRattus norvegicus (rat)ion assay relative to untreated control; parameters: scale not given: the % may be the effect or the level left
[4] = tested on: Rattus norvegicus; assay: Antiulcer activity in Wistar Rattus norvegicus (rat) assessed as increase in pH of gastric secretions at 0.1158 mM/kg, po administered 1 hr prior to pylorous ligation measured after 19 hr by digital pH metric analysis relative to untreated control
[5] = tested on: Rattus norvegicus; assay: Antiulcer activity in Wistar Rattus norvegicus (rat) assessed as increase in pH of gastric secretions at 0.0579 mM/kg, po administered 1 hr prior to pylorous ligation measured after 19 hr by digital pH metric analysis relative to untreated control
[6] = tested on: Rattus norvegicus; assay: Antiulcer activity in Wistar Rattus norvegicus (rat) assessed as change in pH of gastric secretions at 0.0289 mM/kg, po administered 1 hr prior to pylorous ligation measured after 19 hr by digital pH metric analysis relative to untreated control
[7] = tested on: Rattus norvegicus; assay: Antiulcer activity in Wistar Rattus norvegicus (rat) assessed as decrease in total volume of gastric secretions at 0.1158 mM/kg, po administered 1 hr prior to pylorous ligation measured after 19 hr relative to untreated control; parameters: scale not given: the % may be the effect or the level left
[8] = tested on: Rattus norvegicus; assay: Antiulcer activity in Wistar Rattus norvegicus (rat) assessed as decrease in total volume of gastric secretions at 0.0579 mM/kg, po administered 1 hr prior to pylorous ligation measured after 19 hr relative to untreated control; parameters: scale not given: the % may be the effect or the level left
[9] = tested on: Rattus norvegicus; assay: Antiulcer activity in Wistar Rattus norvegicus (rat) assessed as decrease in total volume of gastric secretions at 0.0289 mM/kg, po administered 1 hr prior to pylorous ligation measured after 19 hr relative to untreated control; parameters: scale not given: the % may be the effect or the level left

Row | SMILES | Activity [1] | Activity [2] | Activity [3] | Activity [4] | Activity [5] | Activity [6] | Activity [7] | Activity [8] | Activity [9]
1 | COc1nc(C[S+]([O-])c2nc3ccccc3[nH]2)nc2sc3c(c12)CCCC3 (configuration not stated) | 39.27% | 37.69% | 24.15% | 23.55% | 17.33% | 6.65% | 50% | 51.06% | 23.93%
2 | [O-][S+](Cc1nc(OCC(F)(F)F)c2c3c(sc2n1)CCCC3)c1nc2ccccc2[nH]1 (configuration not stated) | 52.14% | 38.14% | 27.08% | 14.13% | 6.28% | 5.45% | 34.57% | 29.78% | 60.1%
3 | COc1ccc2[nH]c([S+]([O-])Cc3nc(OC)c4c5c(sc4n3)CCCC5)nc2c1 (configuration not stated) | 50.33% | 33.86% | 29.57% | 10.33% | 9.05% | 1.44% | 57.71% | 77.39% | 69.94%
4 | COc1nc(C[S+]([O-])c2nc3ccccc3[nH]2)nc2scc(-c3ccccc3)c12 (configuration not stated) | 36.79% | 25.28% | 23.92% | 9.91% | 6.19% | 0.72% | 72.34% | 61.96% | 70.74%
5 | [O-][S+](Cc1nc(OCC(F)(F)F)c2c(-c3ccccc3)csc2n1)c1nc2ccccc2[nH]1 (configuration not stated) | 45.37% | 26.18% | 16.93% | 8.09% | 0.1% | 3.69% | 50.53% | 45.21% | 49.46%
6 | COc1ccc2[nH]c([S+]([O-])Cc3nc(OC)c4c(-c5ccccc5)csc4n3)nc2c1 (configuration not stated) | 38.6% | 23.7% | 17.6% | 10.84% | 4.02% | 3.35% | 52.92% | 46.01% | 47.07%
7 | COc1nc(C[S+]([O-])c2nc3ccccc3[nH]2)nc2scc(-c3ccc(Cl)cc3)c12 (configuration not stated) | 51.46% | 42.43% | 32.05% | 23.31% | 11.17% | 8.96% | 69.68% | 58.24% | 52.65%
8 | [O-][S+](Cc1nc(OCC(F)(F)F)c2c(-c3ccc(Cl)cc3)csc2n1)c1nc2ccccc2[nH]1 (configuration not stated) | 52.82% | 41.76% | 22.34% | 32.86% | 17.97% | 2.03% | 60.37% | 50.26% | 43.08%
9 | COc1ccc2[nH]c([S+]([O-])Cc3nc(OC)c4c(-c5ccc(Cl)cc5)csc4n3)nc2c1 (configuration not stated) | 37.92% | 22.12% | 5.41% | 3.048% | 2.25% | 5.41% | 55.58% | 43.88% | 28.19%
10 | COc1ccc2[nH]c([S+]([O-])Cc3nc(Cl)c4c5c(sc4n3)CCCC5)nc2c1 (configuration not stated) | 48.08% | 41.76% | 24.37% | 20.03% | 11.99% | 5.07% | 59.84% | 53.98% | 44.41%
11 | COc1ccc2[nH]c([S+]([O-])Cc3nc(Cl)c4c(-c5ccccc5)csc4n3)nc2c1 (configuration not stated) | 40.18% | 25.5% | 20.76% | 14.36% | 5.54% | 5.45% | 76.32% | 68.08% | 42.02%
12 | COc1ccc2[nH]c([S+]([O-])Cc3nc(Cl)c4c(-c5ccc(Cl)cc5)csc4n3)nc2c1 (configuration not stated) | 44.01% | 24.37% | 18.05% | 19.72% | 5.91% | 1.44% | 73.67% | 67.28% | 56.64%
13 | COc1ccc2[nH]c([S+]([O-])Cc3ncc(C)c(OC)c3C)nc2c1 (configuration not stated) [OMEPRAZOLE] | 71.55% | 56.65% | 49.66% | 62.67% | 55.79% | 50.9% | 73.93% | 63.55% | 53.72%

— ChEMBL document CHEMBL3044567, “Synthesis and biological evaluation of novel condensed pyrimidinylmethylsulfinylbenzimidazoles as antiulcer agent” (2013)
